Assay [1] has as its system AMPA/kainate subtype of glutamate receptors. As to the kind of experiment: Antagonism of kainate-evoked currents, perforated whole-cell patch-clamp on primary cultures of hippocampal neurons. As to conditions: for pEC50: cultured fetal rat hippocampal neurons. The format is cell-based, rat. The protocol:
Johnson Pharmaceutical Research Institute, Internal Research Reports, Document ID Accession Numbers A500,960 and 398533:1). In these studies, primary cultures enriched in neurons derived from the hippocampus of fetal rats were grown in vitro for 14 to 21 days under conditions that allowed them to reach a high density and develop numerous synaptic contacts. Perforated whole-cell patch-clamp procedures were used to study electrical properties of the neuronal membranes. In this procedure electrical contact between the recording electrode and the intracellular fluid is achieved by using amphotericin B to form pores in the cell membrane. This enables the cell membrane potential or current flow across the cell membrane to be recorded accurately. Kainate, topiramate and other test compounds were microperfused onto the neurons using a multi-barrel Teflon concentration clamp pipette. Topiramate (dissolved in DMSO at 1M, then diluted in the medium in which the neurons were incubated) was applied at concentrations of […] kainate was applied at concentrations 0.1 or 1 mM.
In an initial set of experiments, the antagonistic action of topiramate on kainate-evoked currents was determined as a function of the membrane potential.
The time-course of topiramate's antagonistic activity was evaluated in a second set of experiments. Kainate was pulsed into the bathing fluid for 3 sec at 1 min intervals, and once a baseline for the kainate-evoked current was established topiramate was applied constantly for a period ranging from a few min to 20 min. […] Concentration-response curves were generated for both phases of topiramate's blocking effect. The EC50 was approximately 1 micromolar for each phase. However, the concentration required for a maximum response was approximately 0.1 mM for the first phase (phase I block) but only approximately 0.010 mM for second (phase II block).
Because of the compelling evidence that the functional state of glutamate receptors is regulated partly by protein kinases and phosphatases (L. Y. WANG, F. A. TAVERNA, X. P. HUANG, J. F. MACDONALD, and D. R. HAMPSON, Science 259, 1173-1175, 1993), the phase II blocking effect could be explained by dephosphorylation of the kainate-activated receptors. Based on evidence that cAMP-dependent protein kinase (PKA) modulates kainate activated receptors(L. Y. WANG, F. A. TAVERNA, X. P. HUANG, J. F. MACDONALD, and D. R. HAMPSON, Science 259, 1173-1175, 1993), a set of experiments was undertaken to determine if dibutyryl cyclic AMP could restore the excitatory activity of kainate subsequent to topiramate's phase II block; i.e., cause the "irreversible" effect to be reversed. […] In another set of experiments the nonspecific phosphatase inhibitor okadaic acid was applied at 1 micromolar prior to, and during, the application of topiramate to determine if inhibiting the dephosphorylation of the kainate activated receptors would prevent the phase II blocking effect of topiramate.
For orientation: The patch-clamp technique gives a direct electrical read-out from membranes.

The subject of assay [2] is rodent models of epilepsy. The note with it: several rodent models of epilepsy; cited from earlier work.
The subject of another assay is human epilepsy. The note with it: clinical trials of human epilepsy; cited from earlier work.
The subject of assay [3] is animal model of kindled epilepsy. As to conditions: cited from earlier work.
[4] abbreviates: 1 micromolar, prior to and during topiramate.

Consider three compounds from patent US5753694A, “Anticonvulsant derivatives useful in treating amyotrophic lateral sclerosis (ALS)” (Ortho Pharmaceutical Corporation, priority 1997, dated 1998).

pEC50: −log10 of the molar value. Read-outs that look alike come from different tables or passages of the source.

`C=C1[C@@H](O)[C@@H]2O[C@]3(CC[C@H](/C=C/[C@@H](C)[C@@H]4CC(C)=C[C@@]5(O[C@H](C[C@@](C)(O)C(=O)O)CC[C@H]5O)O4)O3)CC[C@H]2O[C@@H]1[C@@H](O)C[C@H](C)[C@H]1O[C@@]2(CCCCO2)CC[C@H]1C` [okadaic acid]: the “effect on kainate-evoked current prior to application of topiramate” value in assay [1] (1 micromolar) is listed as “little effect”. In addition, in assay [1] (setting [4]), the “effect on topiramate's initial antagonistic effect (phase I block)” value is given as “did not affect” and the “effect on topiramate's phase II block” value is given as “phase II block was prevented”.
Broadly, the pEC50 is the EC50 on a negative log10 scale, so that one unit is a factor of ten. With `CC1(C)O[C@@H]2[C@@H](CO[C@@]3(COS(N)(=O)=O)OC(C)(C)O[C@@H]23)O1` [topiramate, 2,3:4,5-bis-O-(1-methylethylidene)-β-D-fructopyranosesulfamate], the block of seizures entry in assay [2] and in assay [3] was “effectively block seizures” throughout. Moreover, the pEC50 was approximately 6.00 in assay [1] (phase I block (early, reversible), read-out: EC50 of block of kainate-evoked current, first phase (phase I block)) and approximately 6.00 in assay [1] (phase II block (constant application more than 10 min), read-out: EC50 of block of kainate-evoked current, second phase (phase II block)). The “onset of partial block of kainate-evoked current” value in assay [1] (kainate pulsed 3 sec at 1 min intervals, topiramate applied constantly) is “evident within one min”. The “concentration required for a maximum response, phase I block” value in assay [1] (phase I block) is “approximately 0.1 mM”. Besides, the “concentration required for a maximum response, phase II block” value in assay [1] (phase II block) is “approximately 0.010 mM”. Moreover, the “magnitude of antagonistic effect on kainate-induced membrane currents after prolonged application” value in assay [1] (topiramate applied constantly for more than 10 min) is “increased markedly”. Also, the “kainate-evoked current after withdrawal following prolonged application” value in assay [1] (topiramate applied more than 10 min, then withdrawn) is “remained depressed”. Further, the “reversibility of early block on washout” value in assay [1] (topiramate withdrawn (washed out) within 5 min) is “readily reversed”. In assay [1] (voltage-clamped potentials -60 mV to +60 mV at 20 mV increments), the “dependence of antagonistic effect on membrane potential” value is on record as “most effective at membrane potentials near the resting state”. Further, the “efficacy in simple and complex partial seizures and secondarily generalized seizures” value with human epilepsy is “effective as adjunctive therapy or as monotherapy”.
As for `CCCC(=O)Nc1ncnc2c1ncn2[C@@H]1O[C@@H]2COP(=O)(O)O[C@H]2[C@H]1OC(=O)CCC` [dibutyryl cyclic AMP], in assay [1] (applied subsequent to topiramate phase II block), the “restoration of kainate-evoked current after topiramate's phase II block” value is listed as “partially or totally restored the kainate-evoked current”.
